Laboratory results published in patent US6454828B1 (Nulex, Inc., priority 2000, dated 2002).

Tests used:
Pioneer brand 34RO7 corn = assay: Greenhouse evaluation study on use of ZDC as zinc fertilizer on corn; format: in vivo; conditions: for Dry Matter: corn harvested at 5-6 leaf stage, low-Zn Wymore silt loam soil; for Uptake P / Uptake Zn: calculated as dry matter times concentration; for Plant concentration P / Plant concentration Zn: dry plant material, ICP
Method: A greenhouse study was conducted to evaluate ZDC.
The soil source was a surface soil from a severely eroded Wymore silt loam soil (fine, smectitic, mesic Aquertic Argiudolls). Zinc deficiency symptoms on corn had been observed on the site during the 1999 growing season.
The soil was air-dried and sieved through a 1 cm coarse sieve. Five and one-half inch top diameter, plastic-lined pots were used. For each pot, 1600 g of soil was weighed into a plastic bag, and 1 g of monoammonium phosphate (11-52-0) was added to the plastic bags as a nitrogen and phosphorous source to ensure adequate growth. The MPA/soil was thoroughly mixed. About ⅔ of the soil from the thoroughly mixed MAP/soil was added to the plastic-lined pot, with roughly 2 inches of soil remaining to be added to the pot after starter fertilizer application and seed planting. A small furrow was made across the pot and a MAP/zinc starter mix added. An inch of soil was added and 4 seeds of Pioneer brand 34RO7 corn was planted directly over the fertilizer band, and the rest of the soil was added to the pot to cover the seed to one inch deep. Planting was on March 24. The fertilizer rate was calculated as a starter band rate based on the linear feet in an acre planted in 30 inch rows. A 5″ length of row was used in the calculations. […] Six replications were used. Pots were watered from the surface using distilled water. All pots received a blanket application of (NH4)2SO4 at the rate of 50#N/acre at the initial watering and twice more during the duration of the study.
Pots were thinned to three plants per pot approximately 1 week after emergence. Plants were harvested April 28 for dry matter yield by clipping about one-half inch above the soil surface. Samples were oven-dried at 65° C. for 48 hours and weighed.
The dry plant material was ground through a stainless steel small plant grinder to pass a 2 mm sieve. A quarter gram was weighed, wet-ashed with nitric-perchloric acid, and P and Zn concentration determined using an inductive couple plasma (ICP) instrument. Zinc and P uptake were calculated as dry matter times concentration.

[1] = Hydroscopicity check: granulated material stored overnight in the open; format: physicochemical; conditions: for Hydroscopicity of granulated material (in words): material melt-granulated at about 340-360° F.; for % Gain (weight, stored in the open): 24 hrs
Method: A sample of the material granulated in the previous run at about 350° F. was screened, and the material falling into a −8 mesh class was stored overnight in the open to check for hydroscopicity.

[2] = ambient temperatures; cited from earlier work

SMILES | Plant height, visual (10# Zn vs 1# Zn) (Pioneer brand 34RO7 corn; 10# Zn as ZDC compared with 1# Zn as ZDC, from shortly after emergence throughout the study) | Dry Matter (Pioneer brand 34RO7 corn; Zn rate 1 lb/ac as starter band) [g/pot] | Uptake P (Pioneer brand 34RO7 corn; Zn rate 1 lb/ac) [mg/pot] | Uptake Zn (Pioneer brand 34RO7 corn; Zn rate 1 lb/ac) | Plant concentration P (Pioneer brand 34RO7 corn; Zn rate 1 lb/ac) | Plant concentration Zn (Pioneer brand 34RO7 corn; Zn rate 1 lb/ac) [ppm] | Dry Matter (Pioneer brand 34RO7 corn; Zn rate 10 lb/ac as starter band) [g/pot] | Uptake P (Pioneer brand 34RO7 corn; Zn rate 10 lb/ac) [mg/pot] | Uptake Zn (Pioneer brand 34RO7 corn; Zn rate 10 lb/ac) | Plant concentration P (Pioneer brand 34RO7 corn; Zn rate 10 lb/ac) | Plant concentration Zn (Pioneer brand 34RO7 corn; Zn rate 10 lb/ac) [ppm] | Hydroscopicity of granulated material (in words) [1] | Hydroscopicity of granulated material (in words) ([1]; listed as Zn(NH3)2Cl2) | % Gain (weight, stored in the open) ([1]; −4+6 mesh granulated material) [%] | Weight gained at 24 hrs. ([1]; −4+6 mesh granulated material, starting Wt. 5.0774) | % Gain (weight, stored in the open) ([1]; −8 mesh granulated material) [%] | Weight gained at 24 hrs. ([1]; −8 mesh granulated material, starting Wt. 5.5600) | Zinc content of solution (solubility) [2] [% zinc]
N.N.[Cl][Zn][Cl] [ZDC, Zinc diammine chloride] | slightly shorter | 7.88 | 28.4 | .21 μg/pot | .36% | 27 | 7.44 | 24.6 | .35 μg/pot | .33% | 47 | very low hydroscopicity | did not appear to be hydroscopic | 0.18 | 0.0091 | 0.37 | 0.0206 | 
[Cl-].[Cl-].[Zn+2] [zinc chloride] |  |  |  |  |  |  |  |  |  |  |  |  |  |  |  |  |  | 30
